One data set deals with tubulin. Description: Tubulin polymerization-depolymerization (microtubule assembly-disassembly) assay. The class given is biochemical, calf. Particulars: CaCl2, 10^-6 M drug, 37° C., in words.
The next data set has as its system SK-Mel-28 melanoma cells. Description: XTT dye binding cytotoxicity assay, SK-Mel-28. Type of data set: cell-based. Particulars: Homo sapiens; SK-Mel-28, melanoma; 72 h; read-out: IC50. On the procedure:
(§1) All cell lines described herein were obtained from the ATCC and maintained in media formulations as recommended by the supplier. The cell lines were tested for mycoplasma contamination prior to incubation at 37° C. in 5% carbon dioxide. Normal human dermal fibroblasts, peripheral blood lymphoblasts and mammary epithelial cells were obtained from Clonogenic Cor., San Diego, Calif. and were maintained under the above incubation conditions in special media provided by the supplier.
(§2) Antiproliferative activities of the onium salts were determined using the XTT dye binding assay. Cells were harvested with trypsin/EDTA (Irvine Scientific), washed, resuspended in the appropriate medium, and counted in a hemocytometer using Trypan Blue to determine viability. Then 10^4 cells/well were added to 96 well microtiter plates and incubated for 24 hours before addition of drug at concentrations in the range of 10^-4 to 10^-13 molar by direct addition from DMSO solutions. After 72 hours, XTT binding dye was added and incubation was continued for 4 hours. The inhibition of cell proliferation was quantified using a Molecular Devices Microplate Reader. The absorbance of XTT was measured at […]. The concentration of drug which inhibited growth of cells by 50% was calculated from duplicated determinations.

Data set [1] deals with PC-3 prostate carcinoma cells. Description: XTT dye binding cytotoxicity assay, PC-3. As to conditions: Homo sapiens, 72 h. Type of data set: cell-based. The procedure: as §1, §2
Data set [2] relates to OVCAR-3 ovarian carcinoma cells. As to the kind of experiment: XTT dye binding cytotoxicity assay, OVCAR-3. Type of data set: cell-based. As to conditions: Homo sapiens; OVCAR-3, ovarian carcinoma; 72 h; read-out: IC50. On the procedure:
as §1, §2

A short description of data set [3]: Toxicity and survival in vivo (tumor bearing nude mice).
The test system of another data set is human tumor xenografts. Description: In vivo antitumor effect (human tumor xenografts in nude mice).
Data set [4] has as its system 786-0 renal cell carcinoma cells. As to the kind of experiment: XTT dye binding cytotoxicity assay, 786-0. The class given is cell-based. Particulars: Homo sapiens; 786-0, renal cell carcinoma; 72 h; read-out: IC50. The procedure: as §1, §2
Data set [5] relates to RPMI-7666 blood lymphoblasts. As to the kind of experiment: XTT dye binding cytotoxicity assay, RPMI-7666. Type of data set: cell-based. As to conditions: Homo sapiens; RPMI-7666, blood lymphoblasts (untransformed); 72 h; read-out: IC50. On the procedure:
as §1, §2

Another data set concerns L-1210 leukemia cells. As to the kind of experiment: XTT dye binding cytotoxicity assay, L-1210. Type of data set: cell-based, mouse. Particulars: L1210; L-1210, mouse leukemia; 72 h; read-out: IC50. On the procedure: as §1, §2
The test system of data set [6] is SIHA squamous carcinoma cells. As to the kind of experiment: XTT dye binding cytotoxicity assay, SIHA. Type of data set: cell-based. As to conditions: Homo sapiens; SIHA, squamous carcinoma; 72 h; read-out: IC50. The procedure: as §1, §2
Data set [7] concerns BT-549 breast carcinoma cells. As to the kind of experiment: XTT dye binding cytotoxicity assay, BT-549. Type of data set: cell-based. Particulars: Homo sapiens; BT-549, breast carcinoma; 72 h; read-out: IC50. The procedure: as §1, §2
The test system of data set [8] is UCLA-P3 lung carcinoma cells. As to the kind of experiment: XTT dye binding cytotoxicity assay, UCLA-P3. As to conditions: Homo sapiens, UCLA P-3; UCLA-P3, lung carcinoma; 72 h; read-out: IC50. Type of data set: cell-based. On the procedure: as §1, §2
Data set [9] relates to HT-29 colon carcinoma cells. Description: XTT dye binding cytotoxicity assay, HT-29. Type of data set: cell-based. Particulars: Homo sapiens; HT-29, colon carcinoma; 72 h; read-out: IC50. On the procedure: as §1, §2
For data set [10], the system named is SK-N-SH neuroblastoma cells. Description: XTT dye binding cytotoxicity assay, SK-N-SH. The class given is cell-based. As to conditions: Homo sapiens, neuroblastoma, 72 h, read-out: IC50. On the procedure: as §1, §2
Data set [11] can be described thus: Stability in water, assay medium and storage solution. Type of data set: physicochemical. An excerpt:
used and differing ultraviolet absorption maxima between the prodrug and the drug, the stability was easily assayed using UV detection. In all the ensuing studies, the only degradation products detected were the taxoids and the pyridinone that results from the hydrolysis of the onium salts. In water, these compounds show surprising stability for up to weeks depending upon the storage conditions. […] The fraction of ethyl acetated extractable material was between 18 and 23% for all onium salts and 95% for the present compounds.
FIG. 2 illustrates the results of GTP induced polymerization and calcium chloride induced depolymerization of tubulin in the presence of taxol and the 2'- and 7-MPA substituted derivatives.

Data set [12] relates to M-24 metastatic melanoma cells. As to the kind of experiment: XTT dye binding cytotoxicity assay, M-24. Type of data set: cell-based. Particulars: Homo sapiens, M24; M-24, melanoma-metastatic; 72 h; read-out: IC50. On the procedure:
as §1, §2

Data set [13] can be described thus: Plasma stability and prodrug reversion (ethyl acetate extraction, HPLC). Particulars: human, plasma.
Data set [14] has as its system A-549 lung carcinoma cells. Description: XTT dye binding cytotoxicity assay, A-549. Type of data set: cell-based. Particulars: Homo sapiens, A549; A-549, lung carcinoma; 72 h; read-out: IC50. On the procedure: as §1, §2
Data set [15] deals with HMEC mammary epithelial cells. As to the kind of experiment: XTT dye binding cytotoxicity assay, HMEC. The class given is cell-based. Particulars: Homo sapiens, mammary epithelial cells (untransformed), 72 h, read-out: IC50. The procedure: as §1, §2
Data set [16] relates to Capan 1 pancreas cancer cells. As to the kind of experiment: XTT dye binding cytotoxicity assay, Capan 1. The class given is cell-based. Particulars: Homo sapiens; Capan 1, pancreas cancer; 72 h; read-out: IC50. On the procedure:
as §1, §2

Data set [17] relates to HL-60 promyelocytic leukemia cells. As to the kind of experiment: XTT dye binding cytotoxicity assay, HL-60. As to conditions: Homo sapiens; HL-60, promyelocytic leukemia; 72 h; read-out: IC50. The class given is cell-based. The procedure: as §1, §2
The test system of another data set is NHDF dermal fibroblast. Description: XTT dye binding cytotoxicity assay, NHDF. The class given is cell-based. As to conditions: Homo sapiens, dermal fibroblast (untransformed), 72 h, read-out: IC50. On the procedure:
as §1, §2

Another data set relates to U-2511 CNS cancer cells. Description: XTT dye binding cytotoxicity assay, U-2511. The class given is cell-based. Particulars: Homo sapiens; U-2511, CNS cancer; 72 h; read-out: IC50. The procedure: as §1, §2
Another data set concerns tumor cell lines. Description: Cytotoxicity, summary over tumor cell lines (XTT). Type of data set: cell-based, human and murine.
Data set [18] has as its system Molt-4 T-cell leukemia cells. Description: XTT dye binding cytotoxicity assay, Molt-4. The class given is cell-based. As to conditions: Homo sapiens; Molt-4, T-cell leukemia; 72 h; read-out: IC50. On the procedure:
as §1, §2

For data set [19], the system named is CHO Chinese hamster ovary cells. Description: XTT dye binding cytotoxicity assay, CHO. Type of data set: cell-based. Particulars: Cricetulus griseus; CHO, Chinese hamster ovary (untransformed); 72 h; read-out: IC50. The procedure: as §1, §2
The subject of data set [20] is PC-3 prostate carcinoma tumor xenograft. As to the kind of experiment: PC-3 prostate tumor xenograft in nude mice.
Method: Athymic nude mice were purchased from Harlan-Sprague-Dawley. The animals were housed in microisolated cases under positive air pressure and all manipulations and drug treatments were performed in a laminar flow cabinet. Tumor cells were grown under the above tissue culture conditions. Cell suspensions in RPMI medium were injected S./C. Treatment was started one day after inoculation by i.p. injection of 400 μl drug solutions. Tumors were measured 3 times weekly in two dimensions, using calipers and tumor volume as calculated using the formula (V=w^2 ×L×(3.142).
The tumor model was generated from an ATTC PC-3 prostate carcinoma cell line that was maintained under standard cell proliferation conditions, viz. 37° C., 5% carbon dioxide in sterile air. Each cohort was comprised of eight randomly chosen female athymic nude mice, for a total population size of twenty four. Hemocytometer counted cells, suspended in Hanks mediun (Gibco, Grand Island N.Y.) were implanted S.C. (10^6 cells in 0.4 mL per mouse). Solid tumor growth was measured on each third day. Equimolar amounts of the test compounds (1.0 mM, 400 μL) were injected i.p. on days 1, 3, 5, 7, 9, and 11 using the following media:
(.smallcircle.): Control, 5% dextrose in 5× distilled water (5 DW)
(Δ): Taxol (18.0 mg/kg of animal weight or approximately 1.260 mg/m^2) suspended in Cremaphor/D5W
Inferences about efficacy were drawn by ANOVA followed by protected t-test. […] Data shown as mean value with standard error.
Data set [21] is described as follows: Comparative toxicities (lethality) in mice.

Method for tumor cell lines: Antiproliferative activities of the onium salts were determined using the XTT dye binding assay. Cells were harvested with trypsin/EDTA (Irvine Scientific), washed, resuspended in the appropriate medium, and counted in a hemocytometer using Trypan Blue to determine viability. […] After 72 hours, XTT binding dye was added and incubation was continued for 4 hours. The inhibition of cell proliferation was quantified using a Molecular Devices Microplate Reader. […] The concentration of drug which inhibited growth of cells by 50% was calculated from duplicated determinations.

Turning to `CC(=O)O[C@H]1C(=O)[C@@]2(C)[C@H]([C@H](OC(=O)c3ccsc3)[C@]3(O)C[C@H](OC(=O)[C@H](O)[C@@H](NC(=O)c4ccccc4)c4ccccc4)C(C)=C1C3(C)C)[C@]1(OC(C)=O)CO[C@@H]1C[C@@H]2O` [C-2-substituted thiophene derivative], the “inhibition of calcium chloride induced depolymerization of microtubules” value in the data set on tubulin is on record as “inhibited depolymerization similar to taxol”.

Take `CC(=O)O[C@H]1C(=O)[C@]2(C)[C@@H](Oc3cccc[n+]3C)C[C@H]3OC[C@@]3(OC(C)=O)[C@H]2[C@H](OC(=O)c2ccccc2)[C@]2(O)C[C@H](OC(=O)[C@H](O)[C@@H](NC(=O)c3ccccc3)c3ccccc3)C(C)=C1C2(C)C` [Compound 3]: the IC50 in the data set with SK-Mel-28 melanoma cells was 702 nM; in data set [1], 70.7 nM; in data set [2] it was 84.2 nM; in [4], 454 nM; in data set [5], 123 nM; in the data set with L-1210 leukemia cells it was 178 nM. Also, the IC50 in data set [6] is 8.79 nM; in data set [7] it was 140 nM; in data set [8], 12.8 nM; in data set [9], 35.3 nM; in [10], 19.6 nM; in data set [12] it was 0.62 nM. Also, the IC50 came out at 42.5 nM in data set [14]; 81 nM in data set [15]; 34.5 nM in data set [16]; 5.85 nM in [17]; 85.5 nM in the data set on NHDF dermal fibroblast; 170 nM in the data set on U-2511 CNS cancer cells. Also, the IC50 in data set [18] amounted to 9.94 nM; in [19], 612 nM. Besides, in [3] (Table II, in vivo), the Toxicity result is recorded as “low”. The “% survival” value in data set [3] (at end of experiments) came to 100%. Moreover, the “in vivo antitumor efficacy in words” value in the data set with human tumor xenografts is “completely failed to inhibit the growth of these tumors in nude mice”. Moreover, the “inhibition of calcium chloride induced depolymerization of microtubules” value is “as effective as taxol in inhibiting calcium induced microtubule disassembly” with tubulin; “essentially complete inhibition of depolymerization” in the data set with tubulin (listed as 7-MPA salt); “suppressed by taxol and taxol-7-MPA” with tubulin (listed as taxol-7-MPA). Also, the “stability under the assembly-disassembly conditions” value in data set [11] (HPLC analysis) is “completely stable”. Moreover, the half-life in data set [13] came out at 3 h. Moreover, the recovery in data set [13] is 20%. Besides, in the data set with tumor cell lines, the cytotoxicity in words result was “cytotoxicities comparable to taxol on human tumor cell lines”. Besides, the “antitumor activity, PC-3” value in [20] (1.0 mM, 400 μL i.p., established tumors) is listed as “essentially no antitumor activity”. Further, the “mice surviving treatment, PC-3” value in [20] (in vivo) is on record as “all of the mice given either the 2'- or 7-isomers survived”.

Consider `CC(=O)O[C@@]12CO[C@@H]1C[C@H](O)[C@@]1(C)C(=O)[C@H](O)C3=C(C)[C@@H](OC(=O)[C@H](O)[C@@H](NC(=O)OC(C)(C)C)c4ccccc4)C[C@@](O)([C@@H](OC(=O)c4ccccc4)[C@H]21)C3(C)C` [Compound 5, N-debenzoyl-N-tert-butoxycarbonyl-10-deacetyl Taxol, reference compound], for which the IC50 with SK-Mel-28 melanoma cells was 614 nM; in data set [2] it was 0.11 nM; in [4], 41.5 nM; in data set [5], 71.2 nM; in the data set on L-1210 leukemia cells, 0.59 nM; in [6] it was 1.56 nM. The IC50 in [8] came out at 0.12 nM; in data set [9] it was 0.84 nM; in [10], 0.65 nM; in data set [12], 0.017 nM; in [14], 0.8 nM; in data set [15] it was 32.9 nM. For the same compound, the IC50 in [16] is 0.011 nM; in data set [17], 0.035 nM; in the data set with NHDF dermal fibroblast it was 65 nM; with U-2511 CNS cancer cells it was 21 nM; in data set [19], 80 nM. In addition, in [21] (conventional formulation, relative to taxol), the “50% lethality and toxicities, in words” value is 50% lethality and toxicities at generally lower dosages as compared to taxol.

Take `CC(=O)O[C@@]12CO[C@@H]1C[C@H](O)[C@@]1(C)C(=O)[C@H](O)C3=C(C)[C@@H](OC(=O)[C@H](Oc4cccc[n+]4C)[C@@H](NC(=O)OC(C)(C)C)c4ccccc4)C[C@@](O)([C@@H](OC(=O)c4ccccc4)[C@H]21)C3(C)C` [Compound 6]: the IC50 in the data set with SK-Mel-28 melanoma cells came to 68.2 nM; in data set [2], 81.8 nM; in [4] it was 0.56 nM; in data set [5], 596 nM; with L-1210 leukemia cells, 0.019 nM; in data set [6], 4.12 nM. Also, the IC50 was 0.065 nM in data set [7]; 19.9 nM in [8]; 3.08 nM in data set [9]; 7.34 nM in data set [10]; 0.72 nM in [14]; 56 nM in data set [15]. Further, the IC50 was 0.59 nM in data set [16]; 0.89 nM in data set [17]; 1.59 nM in the data set with NHDF dermal fibroblast; 0.61 nM with U-2511 CNS cancer cells; 292 nM in data set [19]. For the same compound, in data set [21] (mouse, in vivo), the Toxicity result is recorded as “minimal toxicity”. Also, the lethality result in data set [21] (mouse, in vivo) is given as “no lethality”. Besides, the storage stability result in data set [11] (1-2% Tween #80 or Tween #20 with or without ethyl alcohol) was “stable and may stored without significant loss”. Further, the half-life in [13] came to 0.015 h. Also, the recovery in data set [13] was 18%.
